# Test results as given in patent publication US6503948B2, “Method for prevention or treatment of acute allograft rejection and a pharmaceutical composition therefor” (Southern Research Institute, priority 1998, dated 2003).
# Where “and” joins values, the source holds several entries; their conditions need not be identical. Identical values can stand only once.
# Test system: acute allograft rejection (heart graft, Fischer donor to Long-Evans recipient)
# Test: Intra abdominal heterotopic cardiografting in rats with donor pretreatment; graft survival
# Format: in vivo, rat
# Method: 1-(2-chloroethyl)-1-nitroso-3-(3-methylcyclohexyl)urea was administered 5 mg per donor rat at a dosage of 20 mg/kg 24 hours prior to removal of heart tissue for transplantation. Administration of the compound above results in survival of 25 days, 27 days, 30 days, 32 days, and greater than 60 days.
# According to this experiment, the donor rats were Fischer strain and the recipients were Long-Evans strains. These strains are mismatched at the major histocompatibility antigenic site (Ag locus). In the experiment, intra abdominal heterotopic cardiografting was performed using a modification of techniques described by Ono and Lindsey, Improved Technique of Heart Transplantation In Rats, Journal of Thoracic and Cardiovascular Surgery, 57: 225 (1969) and Lee et al., Heterotopic Heart and Lung Transplantation in the Rat, American Journal of Pathology, 59: 279 (1970), the entire contents of the disclosures of both of which are hereby incorporated by reference.
# According to this experiment, a total dose of 20 milligrams per kilogram of the above compound was administered to donor rats 24 hours prior to transplantation. According to this dosage regimen, survival was prolonged from 10 to 25-60 days. Survival for 60 days indicated permanent survival, in other words, while typically surviving 10 days, the rats lived for 25-60 days, with the rats living to 60 days having a permanent survival.
compound,measurement,setting,value
CC1CCCC(NC(=O)N(CCCl)N=O)C1 (stereo not shown) [1-(2-chloroethyl)-1-nitroso-3-(3-methylcyclohexyl)urea],survival,"5 mg per donor rat, 20 mg/kg, given to donor 24 hours prior to removal of heart tissue, Fischer donors, Long-Evans recipients, typical survival 10 days",25 days and 27 days and 30 days and 32 days and greater than 60 days and 25-60 days
same,median survival (considering dying rats only) versus the compound alone,donors treated with 20 mg/kg compound combined with 100 mg/kg methotrexate,increase in median survival
same,microscopic evaluation of hearts,"rats surviving for 60 days, sacrificed after two years, donor dose 20 mg/kg",normal hearts
same,survival,recipients also treated with a single small dose of Cyclosporine A,increase in survival
